Laboratory results from patent US6972296B2, “Carboxylic acid derivatives that inhibit the binding of integrins to their receptors” (Encysive Pharmaceuticals Inc., priority 1999, dated 2005).
pIC50: −log10 of the molar value. Blank lines part the entries; values can stand above or below the compound they belong to.

Biological target: T1, α4β1 integrin (Homo sapiens, UniProt P05556+P13612)
T1 construct: endogenous in cells; host or cells: Ramos cells
Test: Adhesion of calcein-labeled Ramos cells to CS1 (fibronectin) peptide conjugated ovalbumin
Type: cell-based
Settings: Ramos cell adhesion to CS1 conjugated ovalbumin
Procedure, shortened: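 Plates bearing CS1 fibronectin peptide coupled to ovalbumin (0.5 μg/ml coat, 3% BSA block) received calcein-labelled Ramos cells plus compound (100 μM stated) for 30 min at 37 °C. Buffer was TBS pH 7.5 with 1 mM Mg2+, Ca2+, Mn2+; bound cells quantified by fluorescence after lysis; […].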

[1] = Table 7, dose required to give 50% inhibition
[2] = Table 5, dose required to give 50% inhibition

T1 sequence (P13612 34-1032): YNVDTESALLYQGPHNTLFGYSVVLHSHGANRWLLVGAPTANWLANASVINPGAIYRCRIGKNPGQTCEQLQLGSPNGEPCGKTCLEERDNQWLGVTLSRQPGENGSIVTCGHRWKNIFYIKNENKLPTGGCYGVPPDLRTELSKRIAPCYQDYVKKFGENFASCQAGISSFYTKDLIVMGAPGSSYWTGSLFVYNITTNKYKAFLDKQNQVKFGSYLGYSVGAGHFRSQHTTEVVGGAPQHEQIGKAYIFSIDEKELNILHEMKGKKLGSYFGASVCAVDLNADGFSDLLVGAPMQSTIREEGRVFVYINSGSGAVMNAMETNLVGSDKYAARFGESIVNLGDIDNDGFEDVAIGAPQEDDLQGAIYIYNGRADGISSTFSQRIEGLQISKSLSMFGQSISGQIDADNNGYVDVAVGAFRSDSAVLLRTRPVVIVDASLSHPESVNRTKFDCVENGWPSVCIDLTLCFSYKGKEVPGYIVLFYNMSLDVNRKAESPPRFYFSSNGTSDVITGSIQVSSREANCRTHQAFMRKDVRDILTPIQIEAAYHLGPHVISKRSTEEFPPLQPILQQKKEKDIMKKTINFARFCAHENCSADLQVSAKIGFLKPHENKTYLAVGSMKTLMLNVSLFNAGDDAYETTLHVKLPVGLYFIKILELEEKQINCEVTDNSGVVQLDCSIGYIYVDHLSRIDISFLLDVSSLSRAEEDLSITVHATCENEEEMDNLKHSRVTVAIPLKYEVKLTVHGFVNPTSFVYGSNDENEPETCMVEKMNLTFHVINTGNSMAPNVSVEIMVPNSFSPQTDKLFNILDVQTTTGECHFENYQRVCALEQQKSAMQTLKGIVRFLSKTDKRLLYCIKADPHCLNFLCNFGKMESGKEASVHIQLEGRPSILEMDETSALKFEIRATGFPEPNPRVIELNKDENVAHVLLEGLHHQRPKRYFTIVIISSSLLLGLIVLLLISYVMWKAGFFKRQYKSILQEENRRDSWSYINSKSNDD
T1 sequence (P05556 21-798): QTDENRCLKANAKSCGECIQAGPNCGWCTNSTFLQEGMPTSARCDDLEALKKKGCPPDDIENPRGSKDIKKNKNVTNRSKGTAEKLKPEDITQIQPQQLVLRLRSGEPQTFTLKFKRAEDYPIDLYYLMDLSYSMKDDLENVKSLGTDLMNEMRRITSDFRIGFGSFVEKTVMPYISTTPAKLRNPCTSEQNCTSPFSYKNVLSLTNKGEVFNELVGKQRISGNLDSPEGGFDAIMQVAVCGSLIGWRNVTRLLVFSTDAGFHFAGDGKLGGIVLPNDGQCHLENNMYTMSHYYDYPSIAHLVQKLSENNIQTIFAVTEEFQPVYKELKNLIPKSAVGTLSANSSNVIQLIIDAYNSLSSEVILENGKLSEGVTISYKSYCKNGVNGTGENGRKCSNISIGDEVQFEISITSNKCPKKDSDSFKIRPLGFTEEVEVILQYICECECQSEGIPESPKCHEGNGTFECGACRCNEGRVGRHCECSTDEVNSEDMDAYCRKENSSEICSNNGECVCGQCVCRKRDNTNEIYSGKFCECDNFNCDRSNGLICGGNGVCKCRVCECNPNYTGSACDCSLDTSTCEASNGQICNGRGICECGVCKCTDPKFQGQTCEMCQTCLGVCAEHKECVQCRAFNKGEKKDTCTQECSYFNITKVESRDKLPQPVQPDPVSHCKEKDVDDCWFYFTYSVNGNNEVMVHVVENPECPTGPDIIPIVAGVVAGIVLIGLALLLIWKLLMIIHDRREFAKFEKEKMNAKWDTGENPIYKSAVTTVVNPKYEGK

pIC50 (Table 3, 30 minutes at 37° C.): 8.52
Structure (SMILES): COc1ccc([C@H](CC(=O)O)NC(=O)Nc2c(C)ccn(Cc3ccccc3Cl)c2=O)cc1 [(3S)-3-{[({1-[(2-chlorophenyl)methyl]-4-methyl-2-oxo-1,2-dihydro-3-pyridinyl}amino)carbonyl]amino}-3-[4-(methyloxy)phenyl]propanoic acid]

pIC50 [2]: 7.60
Structure (SMILES): CCCCc1cn(Cc2ccccc2Cl)c(=O)c(NC(=O)N[C@@H](CC(=O)O)c2ccc(C)cc2)c1O

pIC50 (Table 3, 30 minutes at 37° C.): 7.82
Structure (SMILES): COc1ccc([C@H](CC(=O)O)NC(=O)Nc2c(C)ccn(Cc3ccccc3Cl)c2=O)cc1C

pIC50 [2]: 8.05
Structure (SMILES): Cc1ccc([C@H](CC(=O)O)NC(=O)Nc2c(O)ccn(Cc3ccccc3C#N)c2=O)cc1 [(3S)-3-[({[1-(2-cyanobenzyl)-4-hydroxy-2-oxo-1,2-dihydropyridin-3-yl]amino}carbonyl)amino]-3-(4-methylphenyl)propanoic acid]

pIC50 [2]: 7.60
Structure (SMILES): Cc1ccc(C(CC(=O)O)NC(=O)Nc2c(O)ccn(Cc3ccccc3Cl)c2=O)o1 (stereo not shown)

pIC50 (Table 3, 30 minutes at 37° C.): 6.40
Structure (SMILES): CC(C)(C)c1ccc([C@H](CC(=O)O)NC(=O)Nc2c(O)ccn(Cc3ccccc3Cl)c2=O)cc1

pIC50 (Table 6, 30 minutes at 37° C.): 8.22
Structure (SMILES): Cc1ccc([C@H](CC(=O)O)NC(=O)Nc2c(O)c(Cl)cn(Cc3ccccc3Cl)c2=O)cc1 [(3S)-3-[({[5-chloro-1-(2-chlorobenzyl)-4-hydroxy-2-oxo-1,2-dihydropyridin-3-yl]amino}carbonyl)amino]-3-(4-methylphenyl)propanoic acid]

pIC50 (Table 3, 30 minutes at 37° C.): 8.30
Structure (SMILES): COc1ccc([C@H](CC(=O)O)NC(=O)Nc2c(O)ccn(Cc3ccccc3Cl)c2=O)cc1 [(3S)-3-{[({1-[(2-chlorophenyl)methyl]-4-hydroxy-2-oxo-1,2-dihydro-3-pyridinyl}amino)carbonyl]amino}-3-[4-(methyloxy)phenyl]propanoic acid]

pIC50 (Table 3, 30 minutes at 37° C.): 8.00
Structure (SMILES): CCCNc1ccn(Cc2ccccc2Cl)c(=O)c1NC(=O)N[C@@H](CC(=O)O)c1ccc(C)cc1 [(3S)-3-[({[1-[(2-chlorophenyl)methyl]-2-oxo-4-(propylamino)-1,2-dihydro-3-pyridinyl]amino}carbonyl)amino]-3-(4-methylphenyl)propanoic acid]

pIC50 (Table 6, 30 minutes at 37° C.): 7.15
Structure (SMILES): Cc1cn(Cc2ccccc2Cl)c(=O)c(NC(=O)N[C@@H](CC(=O)O)c2ccc(OC(F)(F)F)cc2)c1O

pIC50 (Table 3, 30 minutes at 37° C.): 7.52
Structure (SMILES): O=C(O)C[C@H](NC(=O)Nc1c(O)ccn(Cc2ccccc2Cl)c1=O)c1ccc(F)cc1

pIC50 (Table 6, 30 minutes at 37° C.): 7.70
Structure (SMILES): Cc1ccc([C@H](CC(=O)O)NC(=O)Nc2c(O)c(C3CC3)cn(Cc3ccccc3Cl)c2=O)cc1

pIC50 [2]: 7.82
Structure (SMILES): COc1ccc([C@H](CC(=O)O)NC(=O)Nc2c(O)ccn(Cc3ccccc3Cl)c2=O)cc1F

pIC50 [2]: 6.60
Structure (SMILES): COc1ccccc1Cn1cccc(NC(=O)N[C@@H](CC(=O)O)c2ccc(C)cc2)c1=O

pIC50 [2]: 7.77
Structure (SMILES): Cc1ccc([C@H](CC(=O)O)NC(=O)Nc2c(O)ccn(Cc3cccc(C(F)(F)F)c3)c2=O)cc1

pIC50 (Table 4, 30 minutes at 37° C.): 7.00
Structure (SMILES): Cc1ccc([C@H](CC(=O)O)NC(=O)Nc2cccn(Cc3ccccc3C)c2=O)cc1

pIC50 [2]: 6.52
Structure (SMILES): Cc1ccc([C@@H](CC(=O)O)NC(=O)Nc2c(O)ccn(Cc3ccccc3Cl)c2=O)cc1

pIC50 (Table 4, 30 minutes at 37° C.): 7.30
Structure (SMILES): Cc1ccc([C@H](CC(=O)O)NC(=O)Nc2cccn(Cc3ccccc3Br)c2=O)cc1

More lines, now with the values behind:

Structure (SMILES): CCOc1cc(OCC)cc([C@H](CC(=O)O)NC(=O)Nc2c(O)c3c(n(Cc4c(Cl)cccc4OCC)c2=O)CCC3)c1 [(3S)-3-[({[1-(2-chloro-6-ethoxybenzyl)-4-hydroxy-2-oxo-2,5,6,7-tetrahydro-1H-cyclopenta[b]pyridin-3-yl]amino}carbonyl)amino]-3-(3,5-diethoxyphenyl)propanoic acid]
pIC50 [1]: 8.52

Structure (SMILES): O=C(O)C[C@H](NC(=O)Nc1cccn(Cc2ccccc2)c1=O)c1ccc2c(c1)OCO2
pIC50 (Table 4, 30 minutes at 37° C.): 6.30

Structure (SMILES): CCOc1cccc(Cl)c1Cn1c2c(c(O)c(NC(=O)N[C@@H](CC(=O)O)c3ccc(C)cc3)c1=O)CCC2
pIC50 [1]: 8.52

Structure (SMILES): COc1cccc(OC)c1[C@H](CC(=O)O)NC(=O)Nc1cccn(Cc2ccccc2Cl)c1=O
pIC50 (Table 4, 30 minutes at 37° C.): 5.22

Structure (SMILES): O=C(O)C[C@H](NC(=O)Nc1c(O)c2c(n(Cc3ccccc3Cl)c1=O)CCC2)c1ccc2c(c1)CCO2
pIC50 [1]: 8.70

Structure (SMILES): Cc1ccc([C@H](CC(=O)O)NC(=O)Nc2c(O)c(C)c(C)n(Cc3c(C)cccc3Cl)c2=O)cc1
pIC50 [2]: 7.52

Structure (SMILES): CCCc1cn(Cc2c(Cl)cccc2OC)c(=O)c(NC(=O)N[C@@H](CC(=O)O)c2ccc(OCC)c(OCC)c2)c1O
pIC50 (Table 6, 30 minutes at 37° C.): 8.52

Structure (SMILES): CCN(CC)c1cccc([C@H](CC(=O)O)NC(=O)Nc2c(O)c3c(n(Cc4ccccc4Cl)c2=O)CCC3)c1 [(3S)-3-{[({1-[(2-chlorophenyl)methyl]-4-hydroxy-2-oxo-2,5,6,7-tetrahydro-1H-cyclopenta[b]pyridin-3-yl}amino)carbonyl]amino}-3-[3-(diethylamino)phenyl]propanoic acid]
pIC50 [1]: 8.52

Structure (SMILES): CC(C)(C)c1ccc([C@H](CC(=O)O)NC(=O)Nc2cccn(Cc3cccs3)c2=O)cc1
pIC50 (Table 4, 30 minutes at 37° C.): 5.70

Structure (SMILES): CCOc1cccc(Cl)c1Cn1c2c(c(O)c(NC(=O)N[C@@H](CC(=O)O)c3cccc(OC(C)C)c3)c1=O)CCC2
pIC50 [1]: 8.40

Structure (SMILES): CC(C)Cc1cccc([C@H](CC(=O)O)NC(=O)Nc2c(O)c3c(n(Cc4ccccc4Cl)c2=O)CCC3)c1
pIC50 [1]: 7.82

Structure (SMILES): COc1cc([C@H](CC(=O)O)NC(=O)Nc2cccn(Cc3cccs3)c2=O)cc(OC)c1OC
pIC50 (Table 4, 30 minutes at 37° C.): 6.52

Structure (SMILES): Cc1ccc([C@H](CC(=O)O)NC(=O)Nc2c(O)c3c(n(Cc4c(C)cccc4Cl)c2=O)CCC3)cc1
pIC50 (Table 6, 30 minutes at 37° C.): 7.70

Structure (SMILES): Cc1ccc([C@H](CC(=O)O)NC(=O)Nc2c(O)c(C)cn(Cc3cc(S(=O)(=O)N4CCCC4)ccc3Cl)c2=O)cc1
pIC50 [1]: 7.82

Structure (SMILES): CCCc1cn(Cc2c(Cl)cccc2OC)c(=O)c(NC(=O)N[C@@H](CC(=O)O)c2ccc(C)cc2)c1O
pIC50 (Table 6, 30 minutes at 37° C.): 7.82

Structure (SMILES): COc1ccc2cc([C@H](CC(=O)O)NC(=O)Nc3c(O)c(C)cn(Cc4ccccc4Cl)c3=O)ccc2c1
pIC50 (Table 6, 30 minutes at 37° C.): 8.30

Structure (SMILES): COc1cc([C@H](CC(=O)O)NC(=O)Nc2cccn(Cc3ccccc3Cl)c2=O)cc(OC)c1OC
pIC50 (Table 4, 30 minutes at 37° C.): 7.40

Structure (SMILES): Cc1ccc([C@H](CC(=O)O)NC(=O)Nc2c(O)c(C)cn(Cc3cc(OC(C)C)ccc3Cl)c2=O)cc1
pIC50 (Table 6, 30 minutes at 37° C.): 8.15

Structure (SMILES): O=C(O)C[C@H](NC(=O)Nc1cccn(Cc2cccs2)c1=O)c1ccc2c(c1)OCO2 [(3S)-3-(1,3-benzodioxol-5-yl)-3-[({[2-oxo-1-(2-thienylmethyl)-1,2-dihydro-3-pyridinyl]amino}carbonyl)amino]propanoic acid]
pIC50 (Table 2, 30 minutes at 37° C.): 6.05

Structure (SMILES): CCOc1ccc([C@H](CC(=O)O)NC(=O)Nc2c(O)c(C)c(C)n(Cc3c(C)cccc3Cl)c2=O)cc1OCC
pIC50 [2]: 8.40

Structure (SMILES): Cc1cn(Cc2c(C)cccc2Cl)c(=O)c(NC(=O)N[C@@H](CC(=O)O)c2ccc3c(c2)CCO3)c1O
pIC50 [1]: 8.30

Structure (SMILES): O=C(O)C[C@H](NC(=O)Nc1cccn(Cc2ccccc2Cl)c1=O)c1ccc2c(c1)CCO2
pIC50 (Table 4, 30 minutes at 37° C.): 7.40

Structure (SMILES): Cc1ccc([C@H](CC(=O)O)NC(=O)Nc2cccn(CC(=O)Nc3ccccc3O)c2=O)cc1
pIC50 (Table 4, 30 minutes at 37° C.): < 5.00

Structure (SMILES): Cc1cccc(Cl)c1Cn1c2c(c(O)c(NC(=O)N[C@@H](CC(=O)O)c3cccc(OC(F)F)c3)c1=O)CCC2
pIC50 [1]: 8.52

Structure (SMILES): O=C(O)C[C@H](NC(=O)Nc1c(O)ccn(Cc2ccccc2Cl)c1=O)C(c1ccccc1)c1ccccc1
pIC50 [2]: 4.92

Structure (SMILES): COc1ccccc1Cn1cccc(NC(=O)N[C@@H](CC(=O)O)c2ccc3c(c2)OCO3)c1=O
pIC50 (Table 4, 30 minutes at 37° C.): 6.30

Structure (SMILES): CCn1ccc2cc([C@H](CC(=O)O)NC(=O)Nc3c(O)c4c(n(Cc5ccccc5Cl)c3=O)CCC4)ccc21 [(3S)-3-{[({1-[(2-chlorophenyl)methyl]-4-hydroxy-2-oxo-2,5,6,7-tetrahydro-1H-cyclopenta[b]pyridin-3-yl}amino)carbonyl]amino}-3-(1-ethyl-1H-indol-5-yl)propanoic acid]
pIC50 [1]: 8.30

Structure (SMILES): COc1cccc([C@H](CC(=O)O)NC(=O)Nc2cccn(Cc3cccs3)c2=O)c1
pIC50 (Table 4, 30 minutes at 37° C.): 5.85

Structure (SMILES): CCOc1cccc([C@H](CC(=O)O)NC(=O)Nc2c(O)c3c(n(Cc4c(Cl)cccc4OCCOC)c2=O)CCC3)c1
pIC50 [1]: 8.40

Structure (SMILES): CCOc1cccc(Cl)c1Cn1c2c(c(O)c(NC(=O)N[C@@H](CC(=O)O)c3cccc(OC4CCCC4)c3)c1=O)CCC2
pIC50 [1]: 8.22

Structure (SMILES): Cc1cc(C)cc(-c2cccc([C@H](CC(=O)O)NC(=O)Nc3c(O)c(C)cn(Cc4ccccc4Cl)c3=O)c2)c1
pIC50 [1]: 7.30

Structure (SMILES): CCN(c1cccc([C@H](CC(=O)O)NC(=O)Nc2c(O)c3c(n(Cc4ccccc4Cl)c2=O)CCC3)c1)S(C)(=O)=O [(3S)-3-{[({1-[(2-chlorophenyl)methyl]-4-hydroxy-2-oxo-2,5,6,7-tetrahydro-1H-cyclopenta[b]pyridin-3-yl}amino)carbonyl]amino}-3-{3-[ethyl(methylsulfonyl)amino]phenyl}propanoic acid]
pIC50 [1]: 9.00

Structure (SMILES): CCCOc1ccc([C@H](CC(=O)O)NC(=O)Nc2c(O)ccn(Cc3ccccc3Cl)c2=O)cc1OCCC [(3S)-3-[({[1-(2-chlorobenzyl)-4-hydroxy-2-oxo-1,2-dihydropyridin-3-yl]amino}carbonyl)amino]-3-(3,4-dipropoxyphenyl)propanoic acid]
pIC50 [2]: 8.52

Structure (SMILES): COc1cccc(Cn2cccc(NC(=O)N[C@@H](CC(=O)O)c3ccc(C)cc3)c2=O)c1
pIC50 (Table 4, 30 minutes at 37° C.): 6.70

Structure (SMILES): Cc1cn(Cc2ccccc2Cl)c(=O)c(NC(=O)N[C@@H](CC(=O)O)c2cccc(C(F)F)c2)c1O [(3S)-3-{[({1-[(2-chlorophenyl)methyl]-4-hydroxy-5-methyl-2-oxo-1,2-dihydro-3-pyridinyl}amino)carbonyl]amino}-3-[3-(difluoromethyl)phenyl]propanoic acid]
pIC50 [1]: 7.70

Structure (SMILES): CCOc1cccc(Cl)c1Cn1cc(C)c(O)c(NC(=O)N[C@@H](CC(=O)O)c2ccc(C)cc2)c1=O [(3S)-3-[({[1-(2-chloro-6-ethoxybenzyl)-4-hydroxy-5-methyl-2-oxo-1,2-dihydropyridin-3-yl]amino}carbonyl)amino]-3-(4-methylphenyl)propanoic acid]
pIC50 (Table 6, 30 minutes at 37° C.): 8.52

Structure (SMILES): Cc1cc(C)cc([C@H](CC(=O)O)NC(=O)Nc2cccn(Cc3ccccc3Cl)c2=O)c1
pIC50 (Table 4, 30 minutes at 37° C.): 7.00
